# Measured values reported in publication PMC9048847 (RSC Advances, 2020).
# Target: human thrombin (Homo sapiens, UniProt P00734)
# Test: Fluorescence-based thrombin inhibition assay
# Format: biochemical
Compound,IC50 [µM],Anti-thrombin activity (in words)
"CC(C)=CCc1c(O)cc2oc(-c3ccc(O)cc3)c(O)c(=O)c2c1O [compound 14, licoflavonol]",> 100,–
isoliquiritin apioside [compound 8],–,moderate
"O=C(/C=C/c1ccc(O[C@@H]2O[C@H](CO)[C@@H](O)[C@H](O)[C@H]2O)cc1)c1ccc(O)cc1O [compound 1, isoliquiritin]",38.8 ± 4.04,moderate
"COc1c(CC=C(C)C)c(O)cc2oc(=O)c(-c3ccc(O)cc3O)cc12 [compound 16, glycycoumarin]",> 100,–
"O=C1C[C@@H](c2ccc(O[C@@H]3O[C@H](CO)[C@@H](O)[C@H](O)[C@H]3O)cc2)Oc2cc(O)ccc21 [compound 12, liquiritin]",> 100,–
"O=C(/C=C/c1ccc(O)cc1)c1ccc(O)cc1O [compound 2, isoliquiritigenin]",17.9 ± 2.75,moderate
"CC(C)=CCc1cc([C@@H]2CC(=O)c3ccc(O)c(CC=C(C)C)c3O2)ccc1O [compound 11, glabrol]",> 100,–
"CC(C)=CCc1cc(-c2oc3cc(O)cc(O)c3c(=O)c2O)ccc1O [compound 15, isolicoflavonol]",> 100,–
"COc1cc(O)ccc1/C=C/C(=O)c1ccc(O)cc1 [compound 6, echinatin]",28.5 ± 2.65,moderate

# Other lines, results leading:
IC50 [µM],Anti-thrombin activity (in words),Compound
> 100,–,"CC1(C)C=Cc2c(ccc3c2OC[C@@H](c2ccc(O)cc2O)C3)O1 [compound 20, glabridin]"
8.05 ± 1.5,–,"COc1cc(O)c2c(=O)cc(-c3ccc(OC)c(-c4c(O)cc(O)c5c(=O)cc(-c6ccc(O)cc6)oc45)c3)oc2c1 [compound 22, Ginkgetin, reference compound]"
36.1 ± 4.68,–,"O=c1cc(-c2ccccc2)oc2cc(O)c(O)c(O)c12 [compound 23, Baicalein, reference compound]"
> 100,–,"CC1(C)[C@@H](O[C@H]2O[C@H](C(=O)O)[C@@H](O)[C@H](O)[C@H]2O[C@@H]2O[C@H](C(=O)O)[C@@H](O)[C@H](O)[C@H]2O)CC[C@]2(C)[C@H]3C(=O)C=C4[C@@H]5C[C@@](C)(C(=O)O)CC[C@]5(C)CC[C@@]4(C)[C@]3(C)CC[C@@H]12 [compound 19, glycyrrhizic acid]"
> 100,–,"COc1c2c(cc3oc(=O)c4c5ccc(O)cc5oc4c13)OC(C)(C)CC2 [compound 17, isoglycyrol]"
> 100,–,"CC1(C)[C@@H](O)CC[C@]2(C)[C@H]3C(=O)C=C4[C@@H]5C[C@@](C)(C(=O)O)CC[C@]5(C)CC[C@@]4(C)[C@]3(C)CC[C@@H]12 [compound 18, glycyrrhetinic acid]"
